pIC50: −log10 of the molar value.

Series [1] concerns the target T1, CYP11A1 (Homo sapiens, UniProt P05108).
T1 construct: host or cells: NCI-H295R human adrenocortical cancer cells
T1 sequence (P05108 40-521): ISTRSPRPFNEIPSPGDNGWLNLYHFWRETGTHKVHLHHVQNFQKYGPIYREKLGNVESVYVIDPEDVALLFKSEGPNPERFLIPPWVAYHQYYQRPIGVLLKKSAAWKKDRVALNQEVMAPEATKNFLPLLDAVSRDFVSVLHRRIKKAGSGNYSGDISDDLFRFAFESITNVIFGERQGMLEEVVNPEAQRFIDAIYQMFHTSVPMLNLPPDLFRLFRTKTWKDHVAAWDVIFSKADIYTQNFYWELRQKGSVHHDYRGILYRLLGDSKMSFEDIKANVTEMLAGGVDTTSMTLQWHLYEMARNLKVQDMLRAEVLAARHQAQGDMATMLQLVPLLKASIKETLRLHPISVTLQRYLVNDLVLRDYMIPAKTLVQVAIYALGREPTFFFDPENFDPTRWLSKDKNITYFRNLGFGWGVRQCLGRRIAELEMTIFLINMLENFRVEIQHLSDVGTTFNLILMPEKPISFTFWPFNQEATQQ
Nature of the series: Testosterone synthesis inhibition in NCI-H295R cells (testosterone ELISA of culture supernatant). The note with it: 24 hours incubation, testosterone in culture supernatant by ELISA. The series is classed as cell-based. As for the experimental part:
The ability of different compounds to inhibit testosterone biosynthesis was determined by detecting the concentration of testosterone (Abnova testosterone ELISA kit, KA6502) using enzyme-linked immunosorbent assay (ELISA), so as to detect the ability of the compounds to inhibit CYP11A1. In the experiment, similarly, the human adrenocortical cancer cell line NCI-H295R (Procell, CL-0399) was also used as an enzyme source. The compounds were added during NCI-H295R cell culture. After incubation, the concentration of testosterone in the culture supernatant was determined.
95 µl of NCI-H295R cells were taken and cultured overnight with a specialized cell culture medium (Procell, CM-0399) in a 96-well culture plate in a cell incubator at 37°C and 5% CO2. 5 µl/well of a DMSO (Sigma, D8418) solution of the compounds to be tested at different concentrations was then added, followed by continued incubation for 24 hours. The final concentrations of the compounds to be tested were 1000 nM, 333.33 nM, 111.11 nM, 37.04 nM, 12.35 nM, 4.12 nM, 1.37 nM, 0.46 nM, and 0 nM. After the incubation was complete, the cells were centrifuged, 80 µl/well of the cell culture supernatant was obtained, and the concentration of testosterone therein was determined by ELISA method. During ELISA detection, a testosterone standard was used to generate a standard curve. The experiment was carried out with replicate wells. The ELISA well plate had been coated with an anti-testosterone monoclonal antibody. In ELISA plate strips, 25 µl/well of the culture supernatant or standard solution or reference substance was added, followed by 200 µl of a testosterone-HRP complex solution, and the plate was incubated for 1 hour at room temperature on a plate shaker (QILINBEIER, QB-9002) at 200 rpm. Then, the plate was washed three times with a cleaning solution, with 300 µl each time, and patted dry on absorbent paper. 200 µl of a TMB substrate was added. The plate was incubated on the plate shaker for 15 minutes at room temperature, and 100 µl of a stop solution was then added. The absorbance was measured at 450 nm by a microplate reader (PerkinElmer, 2105). The IC50 value was calculated by using GraphPad Prism software. [formula]
In general terms: In an ELISA, binding on a coated surface is turned into a signal by an enzyme label.

Series [2] has as its target T1, CYP11A1. The experiment in a line: Pregnenolone synthesis inhibition in NCI-H295R cells (pregnenolone ELISA of culture supernatant). The series is classed as cell-based. To be noted: 24 hours incubation, pregnenolone in culture supernatant by ELISA. From the text:
Conversion of cholesterol into pregnenolone is a first rate-limiting step in the synthesis of all steroid hormones in vertebrates. This conversion reaction involves a two-step continuous monooxygenation reaction catalyzed by the unique cytochrome P450scc (CYP11A) to produce C22-hydroxycholesterol and C20,C22-dihydroxycholesterol in order, followed by CYP11A1-catalyzed breakage of a C20-C22 carbon-carbon single bond in C20,C22-dihydroxycholesterol to produce one molecule of pregnenolone and one molecule of 4-methylvaleraldehyde. Therefore, the inhibitory effect of a compound on CYP11A1 was identified by detecting the ability of the compound to inhibit pregnenolone synthesis.
The ability of different compounds to inhibit pregnenolone biosynthesis was determined by detecting the concentration of pregnenolone (Abnova pregnenolone ELISA kit, KA1912) using enzyme-linked immunosorbent assay (ELISA), so as to detect the ability of the compounds to inhibit CYP11A1. […] In order to determine the half-maximal inhibitory concentrations (IC50) of CYP11A1 inhibition by different compounds, the compounds were added during NCI-H295R cell culture, and after incubation, the concentration of pregnenolone in the culture supernatant was determined.
95 µl of NCI-H295R cells were taken and cultured overnight with a specialized cell culture medium (Procell, CM-0399) in a 96-well culture plate in a cell incubator at 37°C and 5% CO2. 5 µl/well of a DMSO (Sigma, D8418) solution of the compounds to be tested at different concentrations was then added, followed by continued incubation for 24 hours. The final concentrations of the compounds to be tested were 1000 nM, 333.33 nM, 111.11 nM, 37.04 nM, 12.35 nM, 4.12 nM, 1.37 nM, 0.46 nM, and 0 nM. After the incubation was complete, the cells were centrifuged, 80 µl/well of the cell culture supernatant was obtained and 1 : 8 diluted with the cell culture medium, and the concentration of pregnenolone therein was then determined by ELISA method. During ELISA detection, a pregnenolone standard was used to generate a standard curve. The experiment was carried out with replicate wells. The ELISA well plate had been coated with an anti-pregnenolone rabbit polyclonal antibody. In ELISA plate strips, 50 µl/well of the diluted culture supernatant or standard solution or reference substance was added, followed by 100 µl of a pregnenolone-HRP complex solution, and the plate was incubated for 1 hour at room temperature on a plate shaker (QILINBEIER, QB-9002) at 200 rpm. Then, the plate was washed three times with a cleaning solution, with 300 µl each time, and patted dry on absorbent paper. 150 µl of a TMB substrate was added. The plate was incubated on the plate shaker for 10-15 minutes at room temperature, and 50 µl of a stop solution was then added. The absorbance was measured at 450 nm by a microplate reader (PerkinElmer, 2105). The IC50 value was calculated by using GraphPad Prism software. [formula]

Series [3] in a line: Pharmacokinetic evaluation in ICR mice after intragastric administration (plasma, LC/MS/MS). Type of series: in vivo. To be noted: mouse, po, male ICR mice, i.g., 20 mg/kg; for AUC(0-t): read-out: Area under the curve AUC0-t; for half-life: read-out: Half-life T1/2 (converted); for Cmax: read-out: Plasma concentration Cmax. As for the experimental part:
Taking ICR mice as test animals, the drug concentration in plasma of ICR mice was determined by LC/MS/MS method at different times after intragastric administration (i.g.) with the compound of the present disclosure. The pharmacokinetic behavior of the compound of the present disclosure in ICR mice was studied and the pharmacokinetic characteristics thereof were evaluated.
27 male ICR mice were taken and randomly divided into three groups. The mice were provided by JOINN Laboratories (Suzhou) Co., Ltd. Before administration, the mice were fasted overnight for at least 12 hours. During the fasting and experiment, the drinking water was normal saline.
A certain amount of the compound to be tested was taken, and the test sample prepared with a final concentration of 2 mg/mL was taken for oral administration. The preparation solvent was 0.5% Tween 80 in a 0.5% methylcellulose aqueous solution. After the preparation was complete, a 1N hydrochloric acid aqueous solution was added for adjustment to a clear solution (pH 4-5).
The dosage was 20.0 mg/kg and the dosage volume was 10.0 ml/kg.
At 15 min, 30 min, 1 h, 2 h, 4 h, 6 h, 8 h, 10 h, and 24 h after administration, at least 0.2 mL was taken from the vein (3 animals at each time point) and placed in an EDTA-K2 anticoagulation test tube. The blood sample was collected and then placed in a labeled ice-water bath centrifuge tube, and the plasma was quickly separated by centrifugation. The centrifugation conditions were as follows: 4000 revolutions/minute, 10 minutes, and 4°C. The plasma was stored at -40°C or lower for later testing. Feed supply was resumed 4 hours after administration.
Determination of the content of the compound to be detected in the plasma of ICR mice: After the plasma sample was thawed at room temperature, 50 µL was taken and added to 300 µL of (200 ng/mL, acetonitrile, terfenadine) internal standard, the mixture was vortexed and uniformly mixed for 1 min and then centrifuged at 4°C at 15400 g for 10 min. The supernatant was taken and injected for LC/MS/MS analysis.
The main pharmacokinetic parameters, such as AUC, Cmax and t1/2, were calculated by non-compartmental analysis (NCA) method using WinNonlin software.

The term pIC50 denotes the IC50 on a negative log10 scale, so that one unit is a factor of ten. Lower therefore signals a high IC50. Regarding `CCn1c(CN2Cc3ccccc3C2)ccc(OCC2CCN(S(C)(=O)=O)CC2)c1=O` [Compound 25, 1-ethyl-6-(isoindolin-2-ylmethyl)-3-((1-(methylsulfonyl)piperidine-4-yl)methoxy)pyridin-2(1H)-one], the pIC50 is 8.42 at CYP11A1 [1] and 8.81 on CYP11A1 [2].
As to `CS(=O)(=O)N1CCC(COc2coc(CN3Cc4ccccc4C3)cc2=O)CC1` [Comparative Example 1, reference compound], in series [3], the AUC(0-t) was determined as 4330 ng·h/mL, the half-life was 1.87 h and the Cmax was determined as 7950 ng/mL.
Take `[2H]C([2H])([2H])n1c(CN2Cc3ccccc3C2)ccc(OCC2CCN(S(=O)(=O)C(F)(F)F)CC2)c1=O` [Compound 16, 6-(isoindolin-2-ylmethyl)-1-(methyl-d3)-3-((1-((trifluoromethyl)sulfonyl)piperidine-4-yl)methoxy)pyridin-2(1H)-one]: the values for the pIC50 against CYP11A1 [1] and against CYP11A1 [2] were 7.40 and 8.99, respectively.
Consider `CCn1c(CN2Cc3ccccc3C2)ccc(OCC2CCN(S(N)(=O)=O)CC2)c1=O` [Compound 28, 4-(((1-ethyl-6-(isoindolin-2-ylmethyl)-2-oxo-1,2-dihydropyridin-3-yl)oxy)methyl)piperidine-1-sulfonamide], for which the pIC50 against CYP11A1 [1] was 8.15. The compound further showed a pIC50 on CYP11A1 [2] of 8.93. Also, in series [3], the AUC(0-t) came out at 13600 ng·h/mL, the half-life is 1.22 h and the Cmax was 5440 ng/mL.
The matching figures for `Cn1c(CN2Cc3ccccc3C2)ccc(OCC2CCN(S(C)(=O)=O)CC2)c1=O` [Compound 1, 6-(isoindolin-2-ylmethyl)-1-methyl-3-((1-(methylsulfonyl)piperidine-4-yl)methoxy)pyridin-2(1H)-one]: 7.75, 8.38, 9950 ng·h/mL, 0.708 h and 9720 ng/mL.
As for `CCn1c(CN2Cc3ccccc3C2)ccc(OCC2CCN(S(=O)(=O)O)CC2)c1=O` [Compound 31, 4-(((1-ethyl-6-(isoindolin-2-ylmethyl)-2-oxo-1,2-dihydropyridin-3-yl)oxy)methyl)piperidine-1-sulfonic acid], the pIC50 at CYP11A1 [1] was under 6.00.
In the case of `CCn1c(CN2Cc3ccccc3C2)ccc(OCC2CCN(S(=O)(=O)NS(N)(=O)=O)CC2)c1=O` [Compound 30, 4-(((1-ethyl-6-(isoindolin-2-ylmethyl)-2-oxo-1,2-dihydropyridin-3-yl)oxy)methyl)-N-sulfamoylpiperidine-1-sulfonamide], the pIC50 at CYP11A1 [1] is 8.39; against CYP11A1 [2], 9.19.
The matching figures for `CCn1c(CN2Cc3ccccc3C2)ccc(OCC2CCN(S(=O)(=O)C3CC3)CC2)c1=O` [Compound 26, 3-((1-(cyclopropylsulfonyl)piperidine-4-yl)methoxy)-1-ethyl-6-(isoindolin-2-ylmethyl)pyridin-2(1H)-one]: 8.61 and 9.15.

The values above are taken from patent EP4644384A1 (Shanghai Lichun Biotech Co., Ltd., priority 2023, dated 2024).
